# In patent US20240050580A1, “COMPOSITIONS TARGETING TUMOR ASSOCIATED MACROPHAGES AND METHODS USING SAME” (Rutgers, The State University of New Jersey, priority 2020, published 2024):
# Bridge positions count the residues as written; N and C are the ends. Ends that are not written are not given here.
# Key:
# [1] = test system: CD11b+F4/80+ TAM from EF43.fgf4 mammary tumors; experiment: Cytokine gene expression by quantitative real-time PCR in cultured TAM; type: cell-based, mouse
# Procedure: Three sets of total RNA (RNeasy Mini Kit, Qiagen) were independently isolated from cultured macrophages, or fresh macrophages isolated directly from tumors. DNA synthesis was performed with the […] Reverse Transcription System (Promega) by using oligodT for reverse transcription. Gene expression was analyzed with the use of Tagman probes (Applied Biosystems) in a 7500 Fast Real-Time PCR System instrument (Applied Biosystems) and three sets of endogenous control genes: 18S and GAPDH and GUSB1. TAM were obtained directly from EF43.fgf4 tumors. Tissue digestion was performed in collagenase A in serum-free DMEM (1 mg/mL) for 20 minutes at 37° C., followed by filtering through 70 μm nylon cell strainers and centrifugation. Macrophages were enriched by magnetic bead separation of CD11b-positive cells (Miltenyi Biotec) and either used for RNA extraction or cultured in 6-well plates containing DMEM (Gibco) supplemented with 20% FBS (Sigma) and 50 ng/ml of M-CSF (R&D Systems). A homogeneous population of adherent macrophages (namely, >99% CD11b+F480+) was obtained after 7 days in culture.
# [2] = molecular target: T1, DBP (Homo sapiens, UniProt P02774); experiment: Competitive binding of […]-phage and vitamin D forms to DBP; details: wells pre-incubated with 3 nM or 30 nM competitor; P<0.05
# T1 construct: GST; purchased Abcam
# T1 sequence (P02774 17-474): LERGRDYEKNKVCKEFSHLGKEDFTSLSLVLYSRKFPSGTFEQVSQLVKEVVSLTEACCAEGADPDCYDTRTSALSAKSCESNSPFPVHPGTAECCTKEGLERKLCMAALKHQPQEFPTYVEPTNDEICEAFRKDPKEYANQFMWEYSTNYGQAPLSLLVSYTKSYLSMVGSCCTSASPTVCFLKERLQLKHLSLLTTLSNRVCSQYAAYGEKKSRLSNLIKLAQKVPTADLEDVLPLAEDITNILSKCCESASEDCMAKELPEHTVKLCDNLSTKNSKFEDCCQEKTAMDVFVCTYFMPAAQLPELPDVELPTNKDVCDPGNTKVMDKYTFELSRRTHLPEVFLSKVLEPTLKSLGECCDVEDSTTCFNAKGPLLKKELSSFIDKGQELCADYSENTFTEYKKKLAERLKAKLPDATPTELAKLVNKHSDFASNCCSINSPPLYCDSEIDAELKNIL
# Procedure: (§1) The Biopanning and Rapid Analysis of Selective Interactive Ligands (BRASIL) methodology was used to test binding of phage to cultured cells. For phage binding to the candidate receptors PDIA3 and DBP, individual microtiter wells of 96-well plates were coated overnight (ON) with 1 μg/ml of recombinant proteins, followed by blocking with BSA and incubation with 10^9 TU of insertless phage or […]-phage for 1 hour at room temperature (RT). GST and BSA were used as control proteins. Bound phage were recovered by log-phase infection of host bacteria (200 μl E. coli K91Kan).
# [3] = test system: EF43.fgf4 cells; experiment: Phage/peptide binding to cultured EF43.fgf4 cells (BRASIL cell binding assay); type: cell-based, mouse; details: standard cell binding assay, phage-displayed peptide
# Procedure: as §1
# [4] = test system: EF43.fgf4 tumors; experiment: Systemic treatment of EF43.fgf4 tumor-bearing mice with soluble peptide; type: in vivo, mouse
# [5] = test system: EF43.fgf4-derived mammary fat pad tumors; experiment: In vivo phage display library selection in EF43.fgf4 tumor-bearing mice; parameters: species or system mouse; details: peptide sequences from third round of in vivo selection
# Procedure: Combinatorial phage display selections in vivo in tumor-bearing mice were performed as described in the literature. In brief, animals received 10^9 TU iv of an unselected phage display random peptide library (displaying the insert CX7C). Tumors and control organs were collected after 24 hours of systemic circulation. For homing of individual phage clones in vivo, tumor-bearing mice were deeply anesthetized with 1-2% isoflurane and received 10^9 TU of targeted phage or insertless control phage, both administered iv side-by-side. Phage particles were recovered from tissue samples by bacterial infection and processed as described in the literature.
# A phage display-based approach was used to identify homing peptides that target TAM in TNBC. […] A random phage peptide library was first administered intravenously (iv) in immunocompetent female BALB/c mice with established EF43.fgf4-derived mammary fat pad tumors. Phage particles were recovered from tumors after 24 hours, re-amplified, and subjected to two additional rounds of in vivo selection. […] The four selected peptides were next individually evaluated based on absence of binding to EF43.fgf4 cells in vitro (FIG. 2B). […] In a non-limiting aspect, the peptides […], (SEQ ID NO:3) […] (SEQ ID NO:4), and […] (SEQ ID NO:2) were not studied further.
# [6] = molecular target: T2, PDIA3 on the surface of tumor associated macrophages (TAM) from EF43.fgf4 mammary tumors (mouse, UniProt P27773 25-505); experiment: cell-based or functional assay
# T2 sequence (looked up): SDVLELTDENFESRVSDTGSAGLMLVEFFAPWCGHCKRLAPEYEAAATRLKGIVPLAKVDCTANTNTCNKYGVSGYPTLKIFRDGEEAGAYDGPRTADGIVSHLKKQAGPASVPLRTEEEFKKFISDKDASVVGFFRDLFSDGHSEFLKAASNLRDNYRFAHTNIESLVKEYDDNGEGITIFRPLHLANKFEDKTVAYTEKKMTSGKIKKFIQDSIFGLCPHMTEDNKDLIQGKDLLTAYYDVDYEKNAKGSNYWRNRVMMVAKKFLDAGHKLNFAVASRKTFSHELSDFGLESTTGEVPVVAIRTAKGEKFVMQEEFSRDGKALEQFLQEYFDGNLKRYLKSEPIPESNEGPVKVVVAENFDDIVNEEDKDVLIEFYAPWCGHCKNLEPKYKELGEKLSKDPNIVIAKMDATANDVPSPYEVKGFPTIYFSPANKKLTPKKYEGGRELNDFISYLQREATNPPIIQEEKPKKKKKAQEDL
# [7] = molecular target: T3, recombinant human vitamin D-binding protein (DBP) (human, UniProt P02774 17-474, limits assumed); experiment: phage binding assay on coated recombinant protein, bound phage counted as TU
# T3 construct: Bought from Abcam and coated at 1 ug/ml on microtiter wells; also called recombinant human DBP; DBP-GST
# T3 sequence (looked up): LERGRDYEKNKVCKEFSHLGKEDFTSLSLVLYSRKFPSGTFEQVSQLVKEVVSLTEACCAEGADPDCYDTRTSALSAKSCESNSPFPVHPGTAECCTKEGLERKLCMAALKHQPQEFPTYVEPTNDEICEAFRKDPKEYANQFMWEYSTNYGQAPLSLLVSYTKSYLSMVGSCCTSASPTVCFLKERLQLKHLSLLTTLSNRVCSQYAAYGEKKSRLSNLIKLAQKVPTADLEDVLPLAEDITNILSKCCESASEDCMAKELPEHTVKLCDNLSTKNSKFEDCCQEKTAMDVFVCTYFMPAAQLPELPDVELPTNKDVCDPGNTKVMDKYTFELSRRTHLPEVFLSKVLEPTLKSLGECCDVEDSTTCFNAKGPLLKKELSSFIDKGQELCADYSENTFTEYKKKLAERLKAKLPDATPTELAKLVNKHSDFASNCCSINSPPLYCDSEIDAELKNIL
# Procedure: The Biopanning and Rapid Analysis of Selective Interactive Ligands (BRASIL) methodology was used to test binding of phage to cultured cells. […] GST and BSA were used as control proteins. Bound phage were recovered by log-phase infection of host bacteria (200 μl E. coli K91Kan).
molecule,measurement,setting,value
"C=C1/C(=C\C=C2/CCC[C@]3(C)[C@@H]([C@H](C)CCCC(C)(C)O)CC[C@@H]23)C[C@@H](O)C[C@@H]1O [1,25-(OH)2D3, reference compound]",effect of co-treatment on the CSSTRESAC-induced cytokine response,"[1]; TAM co-treated with CSSTRESAC peptide and 1,25-(OH)2D3",abrogated
"C=C1CC[C@H](O)C/C1=C/C=C1\CCC[C@]2(C)[C@@H]([C@H](C)CCCC(C)C)CC[C@@H]12 [vitamin D3, cholecalciferol]",effect on binding of CSSTRESAC-phage to immobilized DBP,[2],not
CQRALMIAC (TAM Targeting Peptide) [TAM targeting peptide selected by in vivo phage display],binding to EF43.fgf4 cells in vitro,[3],bound to EF43.fgf4 cells
CRGFVVGRC (TAM Targeting Peptide) [TAM targeting peptide selected by in vivo phage display],binding to EF43.fgf4 cells in vitro,[3],bound to EF43.fgf4 cells
CRYSAARSC (TAM Targeting Peptide) [TAM targeting peptide selected by in vivo phage display],binding to EF43.fgf4 cells in vitro,[3],bound to EF43.fgf4 cells
CSSTRESAC (disulfide 1-9) [TAM targeting peptide from CX7C phage library; modeled with disulfide bridge between Cys1 and Cys9],tumor growth,"[4]; iv, vs unrelated control peptide or vehicle, from one week post initiation, P<0.001",significant delay in tumor growth
same,"macrophage population in tumor sections (immunohistochemistry, CD163)",[4]; vs control peptide,reduction of the macrophage population
same,number of CD11b+IL10highIL12low PDIA3-expressing TAM in tumors (FACS),[4]; vs negative control groups,reduction in the number
same,enrichment relative to each of the other three selected peptides,[5],16 fold
same,binding to EF43.fgf4 cells in vitro,[3],did not
same,gene expression of IL-4 and IL-13,[1],undetectable
same,"gene expression of IL-18, IL-12, and INFβ",[1]; relative to control cells,modest increases or were detected only at background levels
same,"gene expression of anti-inflammatory cytokines TGF-β1, TGF-β2, IL-10, and arginase-1",[1]; relative to control cells,much lower increases
CSSTRESAC (not fully specified; cysteine pairing not given here) [synthetic CSSTRESAC peptide (SEQ ID NO:1)],gene expression of iNOS2 in cultured CD11b+F4/80+ TAM (real-time quantitative PCR),[6],~20 fold
same,gene expression of the cytokine IL-23 in cultured CD11b+F4/80+ TAM (real-time quantitative PCR),[6],~10 fold
same,"gene expression of the pro-inflammatory cytokines IL-1β, TNF-α, and IL-6 in cultured CD11b+F4/80+ TAM (real-time quantitative PCR)",[6],~40 fold
"CSSTRESAC (cysteine pairing not given here; also: displayed on bacteriophage particle, The control was insertless phage; not shown: The phage coat protein and the rest of the phage particle that carry the CX7C insert) [CSSTRESAC-phage]",binding result,[7],binds
